We go through six molecules from ChEMBL document CHEMBL2321749, “Incorporation of rapid thermodynamic data in fragment-based drug discovery” (J Med Chem, 2013).

For orientation: Kd means the equilibrium constant for the complex coming apart.

Test [1] deals with T1, Steroid Delta-isomerase (Pseudomonas putida, UniProt P07445).
T1 sequence (P07445 whole entry): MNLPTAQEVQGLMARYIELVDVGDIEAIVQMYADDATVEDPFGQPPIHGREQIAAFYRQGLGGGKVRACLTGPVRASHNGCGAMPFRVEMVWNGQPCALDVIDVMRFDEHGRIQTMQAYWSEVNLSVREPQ
Put plainly: Binding affinity to Pseudomonas putida KSI by isothermal titration calorimetry.

Test [2] addresses T2, Steroid Delta-isomerase (Pseudomonas putida) (UniProt P07445).
T2 sequence (whole entry): T1 sequence (P07445 whole entry)
The experiment in a line: Ratio of KD for Pseudomonas putida KSI by surface plasmon resonance analysis to KD for Pseudomonas putida KSI by surface plasmon resonance analysis. A general note: Surface plasmon resonance follows binding to a sensor surface in real time, without labels.

For test [3], the target named is T1, Steroid Delta-isomerase. Put plainly: Binding affinity to Pseudomonas putida KSI by surface plasmon resonance analysis.

Consider `Cc1nnc2ccc(N3CCCC3)nn12`, for which the Kd at Steroid Delta-isomerase [1] worked out at 22 µM. On Steroid Delta-isomerase [1], `CN1CCC2(C)c3cc(O)ccc3N(C)C12` (stereo not drawn) came in with a Kd of 180 µM. Moreover, the Ratio in test [2] came to 1.8. Take `NC(=O)/C=C/c1cccc(C(F)(F)F)c1`: binding at Steroid Delta-isomerase [1] was put at a Kd of 50 µM. Still for that read-out and setting: to `NC(=O)Nc1cccc(C(F)(F)F)c1` belongs 46 µM. As to `C[C@H](CCC(=O)O)[C@H]1CC[C@H]2[C@@H]3CC[C@@H]4C[C@H](O)CC[C@]4(C)[C@H]3C[C@H](O)[C@]12C` [DEOXYCHOLIC ACID], the dissociation constant Kd on Steroid Delta-isomerase [1] and on Steroid Delta-isomerase [3] was 16 µM throughout. For `Cn1cc(C(N)=O)c2ccccc21`, the Kd at Steroid Delta-isomerase [1] was 63 µM.
